Measurements from publication PMC6965684, “Characterization of binding, functional activity, and contractile responses of the selective 5‐HT1F receptor agonist lasmiditan” (British Journal of Pharmacology, 2019).
Counter-ions that a name gives are not always drawn. Like-named read-outs stand apart in the source and are kept apart here.

Assays:
5-HT1B receptor = biological target: T1, 5-HT1B receptor (Homo sapiens, UniProt P28222); assay: radioligand competition, CHO-K1 membranes; type: binding; details: radioligand listed in supplement Table S1
T1 construct: gene HTR1B; full-length human recombinant receptor in CHO-K1 cells (Ogeda); crude membranes
Excerpt: radioligand competition, CHO-K1 membranes on 5-HT1B receptor

5-HT1F receptor [1] = biological target: T2, 5-HT1F receptor (Homo sapiens, UniProt P30939); assay: cAMP HTRF, stably transfected CHO-K1 cells; type: cell-based; details: agonist mode; inhibition of stimulated cAMP, […] min, room temperature
T2 construct: gene HTR1F; full-length human recombinant receptor in CHO-K1 cells (Ogeda)
T2 sequence (P30939 1-366): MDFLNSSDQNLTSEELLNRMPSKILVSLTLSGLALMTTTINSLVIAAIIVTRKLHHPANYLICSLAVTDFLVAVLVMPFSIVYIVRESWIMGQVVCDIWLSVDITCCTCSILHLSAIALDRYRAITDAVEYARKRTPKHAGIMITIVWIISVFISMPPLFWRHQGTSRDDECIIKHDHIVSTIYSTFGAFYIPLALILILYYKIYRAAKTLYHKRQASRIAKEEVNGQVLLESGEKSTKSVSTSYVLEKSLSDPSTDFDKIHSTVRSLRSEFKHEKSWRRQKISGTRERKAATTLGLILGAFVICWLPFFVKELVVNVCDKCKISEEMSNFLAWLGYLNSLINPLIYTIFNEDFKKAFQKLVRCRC

5-HT2A receptor [2] = biological target: T3, 5-HT2A receptor (Homo sapiens, UniProt P28223); assay: cell-based; design: species or system CHO-K1; IPOne HTRF agonist assay, IP1 accumulation in adherent transfected cells
T3 construct: gene HTR2A; full-length human recombinant receptor in CHO-K1 cells (Ogeda); crude membranes
Procedure: The assay was performed on adherent cells. For agonist testing, the medium was removed and 20 μl of assay buffer plus 20 μl of the studied agonist or the reference agonist were added in each well. The plate was incubated for 60 min at 37°C with 5% CO2. IP1‐D2 reagent and anti‐IP1 cryptate reagents were dispensed in the wells, and IP1 concentrations were then measured following the manufacturer instructions (IPOne HTRF assay kit; Cisbio International, Codolet, France). In brief, increasing concentrations of agonists were added to stably transfected cells in buffer in an Optiplate (PerkinElmer Life Sciences). The plates were incubated, and cells were then lysed by the addition of HTRF reagents (IP1‐D2 reagent and anti‐IP1 cryptate reagents) and diluted in lysis buffer, followed by incubation at room temperature. […] Additionally, the reference values obtained were compared to historical values obtained from the same receptor and used to validate the experimental session. […] For the new assays developed in this study (i.e., 5‐ht1E receptor), the two independent pIC50 determined must be concordant with a 1 log unit interval for the assays to be validated. […]

5-HT1F receptor [3] = biological target: T2, 5-HT1F receptor; assay: radioligand competition, CHO-K1 membranes; type: binding; details: radioligand listed in supplement Table S1
5-HT1A receptor = biological target: T4, 5-HT1A receptor (Homo sapiens, UniProt P08908); assay: radioligand competition, CHO-K1 membranes; type: binding; details: radioligand listed in supplement Table S1
T4 construct: gene HTR1A; full-length human recombinant receptor in CHO-K1 cells (Ogeda); crude membranes
T4 sequence (P08908 1-422): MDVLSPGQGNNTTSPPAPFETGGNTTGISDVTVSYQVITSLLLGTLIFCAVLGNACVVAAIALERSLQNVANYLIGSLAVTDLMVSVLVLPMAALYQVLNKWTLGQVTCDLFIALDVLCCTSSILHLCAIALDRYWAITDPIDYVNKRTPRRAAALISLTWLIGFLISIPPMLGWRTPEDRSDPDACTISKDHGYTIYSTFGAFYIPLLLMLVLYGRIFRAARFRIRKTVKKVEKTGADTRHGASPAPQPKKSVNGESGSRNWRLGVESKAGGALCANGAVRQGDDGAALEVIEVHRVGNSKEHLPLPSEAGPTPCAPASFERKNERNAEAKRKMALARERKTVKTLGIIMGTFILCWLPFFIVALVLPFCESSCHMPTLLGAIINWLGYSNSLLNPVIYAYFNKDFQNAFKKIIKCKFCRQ
Excerpt: radioligand competition, CHO-K1 membranes on 5-HT1A receptor

5-HT2B receptor = biological target: T5, 5-HT2B receptor (Homo sapiens, UniProt P41595); assay: radioligand competition, CHO-K1 membranes; type: binding
T5 construct: gene HTR2B; full-length human recombinant receptor in CHO-K1 cells (Ogeda); crude membranes
Excerpt: radioligand competition, CHO-K1 membranes on 5-HT2B receptor

5-HT1D receptor = biological target: T6, 5-HT1D receptor (Homo sapiens, UniProt P28221); assay: radioligand competition, CHO-K1 membranes; type: binding; details: radioligand listed in supplement Table S1
T6 construct: gene HTR1D; full-length human recombinant receptor in CHO-K1 cells (Ogeda); crude membranes
Excerpt: radioligand competition, CHO-K1 membranes on 5-HT1D receptor

5-ht1E receptor [4] = biological target: T7, 5-ht1E receptor (Homo sapiens, UniProt P28566); assay: radioligand competition, CHO-K1 membranes; type: binding
T7 construct: gene HTR1E; full-length human recombinant receptor in CHO-K1 cells (Ogeda); crude membranes
Excerpt: radioligand competition, CHO-K1 membranes on 5-ht1E receptor

5-HT2A receptor [5] = biological target: T3, 5-HT2A receptor; assay: biochemical; type: CHO-K1 membranes; design: radioligand competition binding on cell membranes, filtration and TopCount scintillation counting
Procedure: Competition binding was performed in duplicate in the wells of a 96‐well plate containing binding buffer (optimized for each receptor), cell membrane extracts (approximately 20,000 cells distributed in the 96‐well plate), radiotracer, and test agonist. Non‐specific binding was determined by co‐incubation with 200‐fold excess of competitor. Cells were incubated and exposed to varying concentrations (1 pM to 10 μM) of a range of displacer agonists (see below). The samples were incubated in a final volume of 0.1 ml and then filtered over Unifilter plates (Perkin Elmer, Massachusetts, USA) pretreated for 2 hr to limit tracer non‐specific binding. Filters were washed five times with 0.5 ml of ice‐cold washing buffer (tris 50 mM pH 7.4) and 50 μl of Microscint 20 (Perkin Elmer) were added to each filter. The plates were incubated 15 min at room temperature on an orbital shaker and then counted with a TopCount™ (Perkin Elmer) for 1 min per well. […] Additionally, the reference values obtained were compared to historical values obtained from the same receptor and used to validate the experimental session. […] For the new assays developed in this study (i.e., 5‐ht1E receptor), the two independent pIC50 determined must be concordant with a 1 log unit interval for the assays to be validated. […]

5-ht1E receptor [6] = biological target: T7, 5-ht1E receptor; assay: cell-based; design: species or system CHO-K1; cAMP HTRF agonist assay, Gi coupled receptors, inhibition of stimulated cAMP; details: cAMP
Procedure: Concentration–response curves were performed in parallel with the agonists. […] After addition of the lysis buffer and 1‐hr incubation, cAMP concentrations were estimated according to the manufacturer specification with the HTRF kit (Cisbio International, Codelet, France). In brief, increasing concentrations of agonists were added to stably transfected cells in buffer in an Optiplate (PerkinElmer Life Sciences, Massachusetts, USA). The plates were incubated, and cells were then lysed by the addition of HTRF reagents (cAMP‐Cryptate and anti‐cAMP‐d2 reagents) and diluted in lysis buffer, followed by incubation at room temperature. […] Additionally, the reference values obtained were compared to historical values obtained from the same receptor and used to validate the experimental session. […] For the new assays developed in this study (i.e., 5‐ht1E receptor), the two independent pIC50 determined must be concordant with a 1 log unit interval for the assays to be validated.

5-ht1E receptor [7] = biological target: T7, 5-ht1E receptor; assay: biochemical; type: CHO-K1 membranes; design: GTPγS agonist functional assay; details: GTPγS
Excerpt: Additionally, the reference values obtained were compared to historical values obtained from the same receptor and used to validate the experimental session. […] For the new assays developed in this study (i.e., 5‐ht1E receptor), the two independent pIC50 determined must be concordant with a 1 log unit interval for the assays to be validated.

5-ht1E receptor [8] = biological target: T7, 5-ht1E receptor; assay: biochemical; type: CHO-K1 membranes; design: radioligand competition binding on cell membranes, filtration and TopCount scintillation counting; details: radioligand displacement; read-out: 5‐ht1E / pIC50 (converted)
Procedure: Competition binding was performed in duplicate in the wells of a 96‐well plate containing binding buffer (optimized for each receptor), cell membrane extracts (approximately 20,000 cells distributed in the 96‐well plate), radiotracer, and test agonist. Non‐specific binding was determined by co‐incubation with 200‐fold excess of competitor. Cells were incubated and exposed to varying concentrations (1 pM to 10 μM) of a range of displacer agonists (see below). The samples were incubated in a final volume of 0.1 ml and then filtered over Unifilter plates (Perkin Elmer, Massachusetts, USA) pretreated for 2 hr to limit tracer non‐specific binding. Filters were washed five times with 0.5 ml of ice‐cold washing buffer (tris 50 mM pH 7.4) and 50 μl of Microscint 20 (Perkin Elmer) were added to each filter. The plates were incubated 15 min at room temperature on an orbital shaker and then counted with a TopCount™ (Perkin Elmer) for 1 min per well. […] Additionally, the reference values obtained were compared to historical values obtained from the same receptor and used to validate the experimental session. […] For the new assays developed in this study (i.e., 5‐ht1E receptor), the two independent pIC50 determined must be concordant with a 1 log unit interval for the assays to be validated.

[9] = IP, read-out: 5‐HT2A / IP (converted)
[10] = radioligand listed in supplement Table S1
[11] = radioligand displacement, read-out: 5‐HT2A / pIC50 (converted)
[12] = radioligand displacement, read-out: 5‐HT2A / pKi (converted)

T7 sequence (P28566 whole entry): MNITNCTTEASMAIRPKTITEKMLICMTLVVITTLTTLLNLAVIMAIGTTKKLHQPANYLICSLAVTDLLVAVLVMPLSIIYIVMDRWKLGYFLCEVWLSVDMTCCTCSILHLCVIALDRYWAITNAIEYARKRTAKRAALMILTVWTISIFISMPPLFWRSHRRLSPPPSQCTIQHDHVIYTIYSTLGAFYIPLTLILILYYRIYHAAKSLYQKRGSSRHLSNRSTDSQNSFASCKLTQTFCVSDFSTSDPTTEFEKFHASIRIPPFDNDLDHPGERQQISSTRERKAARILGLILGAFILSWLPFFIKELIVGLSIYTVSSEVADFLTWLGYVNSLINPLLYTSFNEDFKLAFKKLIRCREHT
T3 sequence (P28223 whole entry): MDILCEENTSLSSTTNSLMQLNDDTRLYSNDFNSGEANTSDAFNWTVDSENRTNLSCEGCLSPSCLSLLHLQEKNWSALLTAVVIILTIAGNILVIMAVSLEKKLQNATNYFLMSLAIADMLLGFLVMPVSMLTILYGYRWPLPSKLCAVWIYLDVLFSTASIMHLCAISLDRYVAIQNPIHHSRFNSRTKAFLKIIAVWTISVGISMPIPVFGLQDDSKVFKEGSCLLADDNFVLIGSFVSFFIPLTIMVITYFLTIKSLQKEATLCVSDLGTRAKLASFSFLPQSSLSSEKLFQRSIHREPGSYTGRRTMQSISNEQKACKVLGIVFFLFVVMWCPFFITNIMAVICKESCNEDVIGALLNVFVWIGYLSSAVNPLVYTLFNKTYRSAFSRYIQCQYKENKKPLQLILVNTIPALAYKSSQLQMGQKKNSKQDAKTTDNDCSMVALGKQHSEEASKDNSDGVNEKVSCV
T5 sequence (P41595 whole entry): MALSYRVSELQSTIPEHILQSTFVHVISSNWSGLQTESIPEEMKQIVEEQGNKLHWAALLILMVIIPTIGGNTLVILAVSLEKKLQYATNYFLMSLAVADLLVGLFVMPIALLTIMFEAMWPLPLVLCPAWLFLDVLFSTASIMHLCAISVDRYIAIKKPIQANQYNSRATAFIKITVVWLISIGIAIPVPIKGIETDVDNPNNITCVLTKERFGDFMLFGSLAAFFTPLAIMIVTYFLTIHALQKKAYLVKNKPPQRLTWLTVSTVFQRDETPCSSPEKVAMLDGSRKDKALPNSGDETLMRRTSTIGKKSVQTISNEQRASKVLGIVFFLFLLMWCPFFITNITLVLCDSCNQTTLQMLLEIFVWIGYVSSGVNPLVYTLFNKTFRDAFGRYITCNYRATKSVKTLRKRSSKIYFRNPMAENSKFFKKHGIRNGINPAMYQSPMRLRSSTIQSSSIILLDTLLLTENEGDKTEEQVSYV
T6 sequence (P28221 whole entry): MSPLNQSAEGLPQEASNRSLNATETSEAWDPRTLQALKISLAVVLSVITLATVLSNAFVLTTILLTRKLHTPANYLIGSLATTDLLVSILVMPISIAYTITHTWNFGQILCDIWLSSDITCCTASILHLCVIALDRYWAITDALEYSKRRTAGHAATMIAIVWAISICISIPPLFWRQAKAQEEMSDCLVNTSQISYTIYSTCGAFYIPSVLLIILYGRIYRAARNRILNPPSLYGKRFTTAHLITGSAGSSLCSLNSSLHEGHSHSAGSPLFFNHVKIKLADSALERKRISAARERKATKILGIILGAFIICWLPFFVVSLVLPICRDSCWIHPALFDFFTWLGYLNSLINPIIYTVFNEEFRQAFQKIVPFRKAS
T1 sequence (P28222 whole entry): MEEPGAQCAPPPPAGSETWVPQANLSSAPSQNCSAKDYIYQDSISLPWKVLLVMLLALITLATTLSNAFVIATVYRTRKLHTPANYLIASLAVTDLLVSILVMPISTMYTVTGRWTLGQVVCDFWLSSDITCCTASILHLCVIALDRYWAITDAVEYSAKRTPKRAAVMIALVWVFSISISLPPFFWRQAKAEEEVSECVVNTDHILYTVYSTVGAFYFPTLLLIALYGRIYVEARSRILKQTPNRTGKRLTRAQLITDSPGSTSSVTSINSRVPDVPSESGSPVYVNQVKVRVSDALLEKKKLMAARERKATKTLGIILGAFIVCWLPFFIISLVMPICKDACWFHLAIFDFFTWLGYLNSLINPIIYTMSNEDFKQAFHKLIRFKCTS

## CN(C)CCc1c[nH]c2ccc(CS(=O)(=O)N3CCCC3)cc12 [Almotriptan malate]
5-HT1B receptor
  5-HT1B / pKi: 8.45 -log M
5-HT1F receptor [1]
  5-HT1F / cAMP: 7.79 -log M
5-HT2A receptor [2]; [9]
  EC50: > 10 µM
5-HT1F receptor [3]
  5-HT1F / pKi: 7.57 -log M
5-HT1A receptor
  5-HT1A / pKi: 6.73 -log M
5-HT2B receptor; [10]
  / pKi: < 5 -log M
5-HT1D receptor
  5-HT1D / pKi: 8.26 -log M
5-ht1E receptor [4]; [10]
  5-ht1E / pKi: < 5 -log M
5-HT2A receptor [5]; [11]
  IC50: > 10 µM
5-HT2A receptor [5]; [12]
  Ki: > 10 µM

## c1ccc2c(c1)CC[C@H](CNCCCNC1=NCCCN1)O2 [Alniditan dihydrochloride]
5-HT2A receptor [2]; [9]
  EC50: > 10 µM
5-HT2A receptor [5]; [11]
  IC50: > 10 µM

## CN1CCC(c2c[nH]c3ccc(NC(=O)c4ccc(F)cc4)cc23)CC1 [LY334370 hydrochloride]
5-HT2A receptor [2]; [9]
  EC50: > 10 µM
5-HT2A receptor [5]; [11]
  IC50: 7.76 µM

## CN(C)CCc1c[nH]c2ccc(Cn3cncn3)cc12 [Rizatriptan benzoate]
5-HT2A receptor [2]
  EC50: > 10 µM
5-HT2A receptor [5]
  IC50: > 10 µM
  Ki: > 10 µM

## CNS(=O)(=O)Cc1ccc2[nH]cc(CCN(C)C)c2c1 [Sumatriptan succinate]
5-ht1E receptor [6]
  EC50: 1.02 µM
5-HT2B receptor; read-out: / pKi (converted)
  Ki: > 10 µM
5-ht1E receptor [4]; read-out: 5-ht1E / pKi (converted)
  Ki: 1.91 µM
5-ht1E receptor [7]
  EC50: 1.62 µM
5-ht1E receptor [8]
  IC50: 3.8 µM

## CN(C)CCc1c[nH]c2ccc(C[C@H]3COC(=O)N3)cc12 [Zolmitriptan]
5-HT2A receptor [2]; [9]
  EC50: > 10 µM
5-HT2A receptor [5]; [11]
  IC50: > 10 µM
5-HT2A receptor [5]; [12]
  Ki: > 10 µM
